Paper PMC7248381, “Structure and Characterization of a Covalent Inhibitor of Src Kinase” (Frontiers in Molecular Biosciences, 2020)

How the values were obtained:
[1] = design: method as in earlier work; settings: comparison values, ref Gierse et al., 1999, Papp-Wallace et al., 2014, Schwartz et al.; cited from earlier work
[2] = molecular target: Src kinase (Homo sapiens, UniProt P12931); test: Src enzymatic activity, mobility shift assay (MSA)
Chain of Src kinase (P12931 254-536): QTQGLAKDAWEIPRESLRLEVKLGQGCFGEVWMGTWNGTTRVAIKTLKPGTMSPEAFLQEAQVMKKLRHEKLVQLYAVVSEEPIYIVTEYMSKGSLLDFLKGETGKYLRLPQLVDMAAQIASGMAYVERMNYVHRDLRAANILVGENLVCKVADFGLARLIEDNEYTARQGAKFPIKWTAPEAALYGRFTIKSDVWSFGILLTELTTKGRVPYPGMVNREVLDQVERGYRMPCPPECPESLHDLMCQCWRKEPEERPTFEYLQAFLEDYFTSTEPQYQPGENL
Protocol: Here, we evaluated the relative potency of inhibitors on Src enzymatic activity using a mobility shift assay (MSA), which measures phosphorylation of a peptide substrate of Src. […] The kinase reaction buffer consisted of 100 mM Hepes, pH 7.3, 0.015% Brij-35, 0.004% Tween-20, and 10 mM MgCl2. […] The percent conversion was determined by EZReader 3.0 software and analyzed using GraphPad software version 7 (La Jolla, California, USA) for determination of IC50 values.

SMILES	inactivation rate constant (kinact) [1] [s⁻¹]	IC50 [2] [nM]
CCOc1cc2ncc(C#N)c(Nc3ccc(OCc4ccccn4)c(Cl)c3)c2cc1NC(=O)/C=C/CN(C)C [neratinib]	0.002	
CN(C)C/C=C/C(=O)Nc1cc2c(Nc3ccc(F)c(Cl)c3)ncnc2cc1O[C@H]1CCOC1 [afatinib]	0.001	
C=CC(=O)Nc1ccccc1Nc1nc(Nc2ccc(N3CCN(C)CC3)cc2)ncc1Cl [SM1-71]		26.6
